In patent publication US9493485B2, “Spirocyclic dihydro-thiazine and dihydro-oxazine BACE inhibitors, and compositions and uses thereof” (Imago Pharmaceuticals, Inc., priority 2012, dated 2016) one finds IC50 data, which are given here for 17 molecules.

pIC50: −log10 of the molar value. Read-outs that look alike come from different tables or passages of the source. Bounds are passed on as bounds.

In assay [1] the test system is BACE1 inhibition in HEKp293 cells transfected with APP751 gene (SWE293). Description: SWE293 cellular assay: reduction of Aβ peptide production, ELISA. In kind it is cell-based. Particulars: Homo sapiens, read-out: SWE293 ED50. As to the method:
BACE1 inhibition is also assessed in a cellular assay. HEKp293 cells transfected with APP751 gene (SWE293, American Type Culture Collection CRL-1563) are used to assess compounds for reduction in levels of Aβ peptide production. SWE293 cell medium is DMEM supplemented with 10% fetal bovine serum and 2 mM L-glutamine, 1.0 mM sodium pyruvate, 25 mM Hepes Buffer, 0.4 mg/mL geneticin (G418, Gibco BRL 860-181IIJ). Cells are maintained diluting 1:10 for 4 days in T-150 flask and 35 mL of cell media. For plating, cells are rinsed with 5 mL of 1×PBS, trypsinized with 4 mL of 0.05% Tripsin for 1 minute, and 12 mL of cell media is added. These are centrifuged at 1000 rpm for 4 minutes and the media aspirated, then 8 mL of media per flask is added. Based on cell count, appropriate amounts of cell and cell media are combined, and 180 μl per well are plated (96 well) and the plates are incubated overnight at 37° C., 5% CO2. Compounds to be tested are serially diluted 1:3 in DMSO and twice in media (without G418) in V-bottom plates and incubated at room temperature. Plated cells are washed with media, 3×50 μL per well and 17 μL per well of appropriate dilution of compound is added. Plates are incubated for 2 hours, and the wash steps, compound addition and incubation are repeated. Sample is transferred to capture plate (prepared with 266 antibody, see e.g. Johnson-Wood et al., PNAS February 1997, 94: 1550-1555), along with a standard curve of Aβ-40. ELISA assay is used to assess Aβ levels, washing with TBS, 0.05% Tween20 pH 7.5, then adding 1.3 mg/mL 3D6 antibody 1:900 in specimen diluents with thimericol is added (100 μl per well) and incubated for 1 hour. Wash step is repeated and Streptavidin-AP diluted 1:1000 in specimen diluents with thimerisol is added (100 μL per well) and incubated for 1 hour. Wash step is repeated and fluorescent substrate is added, 100 μL per well and incubated for 10 minutes followed by reading the fluorescent signal on a plate reader.

The target of assay [2] is T1, BACE1 (Homo sapiens (Human), UniProt P56817). Description: BACE1 AlphaScreen assay (displacement of biotinylated BACE1 binding site probe). Particulars: read-out: BACE1 AS IC50. As to the method: (§1) BACE1 activity can be assessed in an AlphaScreen® assay. Compounds to be assessed (e.g. compounds as described in the above examples) are serially diluted 1:4 in DMSO, then plated by diluting 10 μL of compound with 40 μl of assay buffer (1×PBS, 0.01% Tween-20, pH 7.0, 0.05% BSA). The diluted compound is transferred (4 μL per well) to a 386 well assay plate and 4 μL of BACE1 enzyme ([…]) is added and incubated for 15 minutes. This assay uses a probe that is a BACE1 binding sight ligand linked to biotin, which can be displaced by test compound dependent on compound binding affinity. This of biotinylated probe (4 μL) is added and incubated for 1 hour, followed with 4 μL of donor and acceptor bead mixture and incubated for 2 hours. The fluorescent signal is read on a plate reader and the value as a function of compound concentration is used to determine the IC50. Compounds are also assessed for BACE1 and Cathepsin D activity using an FP Assay. Compounds to be assessed (e.g. compounds as described in the above examples) are serially diluted 1:3 with DMSO and each concentration point is transferred to a 96 well plate, 6 μL per well, followed by addition of 194 μL of assay buffer (100 mM sodium acetate, pH 4.5 with 0.001% Tween-20). A 10 μL compound sample from this plate is transferred to a well of a 384 well plate and combined with 10 μL per well of BACE1 enzyme (0.3 nM in assay buffer) or Cathepsin D enzyme (1.8 nM in assay buffer) and the plate is incubated at room temperature for 30 minutes.
In general terms: In Alpha technology, singlet oxygen from a donor bead excites a nearby acceptor bead.

Assay [3] concerns the target T1, BACE1. Description: BACE1 FP assay. It is filed as biochemical. Particulars: pH 4.5. As to the method: as §1
For another assay, the target named is Cathepsin D (Homo sapiens (Human), UniProt P07339). Kind of assay: Cathepsin D FP assay. In kind it is biochemical. The note with it: pH 4.5, read-out: CatD FP IC50. As to the method: as §1
Where [4] appears, read: dose at which Aβ level is reduced by 50%, HEKp293 SWE293 cells.

Chain of Cathepsin D (P07339 65-412, species assumed): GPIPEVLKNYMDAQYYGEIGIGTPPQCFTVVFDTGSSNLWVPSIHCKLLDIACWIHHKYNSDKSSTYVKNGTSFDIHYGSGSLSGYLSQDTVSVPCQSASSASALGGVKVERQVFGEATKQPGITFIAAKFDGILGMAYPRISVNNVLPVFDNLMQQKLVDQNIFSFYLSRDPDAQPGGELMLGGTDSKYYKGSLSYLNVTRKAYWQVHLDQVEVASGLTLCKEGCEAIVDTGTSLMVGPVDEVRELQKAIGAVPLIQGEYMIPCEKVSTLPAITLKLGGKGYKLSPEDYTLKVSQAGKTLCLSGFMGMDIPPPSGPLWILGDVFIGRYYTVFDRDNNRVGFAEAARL
T1 sequence (P56817 46-501): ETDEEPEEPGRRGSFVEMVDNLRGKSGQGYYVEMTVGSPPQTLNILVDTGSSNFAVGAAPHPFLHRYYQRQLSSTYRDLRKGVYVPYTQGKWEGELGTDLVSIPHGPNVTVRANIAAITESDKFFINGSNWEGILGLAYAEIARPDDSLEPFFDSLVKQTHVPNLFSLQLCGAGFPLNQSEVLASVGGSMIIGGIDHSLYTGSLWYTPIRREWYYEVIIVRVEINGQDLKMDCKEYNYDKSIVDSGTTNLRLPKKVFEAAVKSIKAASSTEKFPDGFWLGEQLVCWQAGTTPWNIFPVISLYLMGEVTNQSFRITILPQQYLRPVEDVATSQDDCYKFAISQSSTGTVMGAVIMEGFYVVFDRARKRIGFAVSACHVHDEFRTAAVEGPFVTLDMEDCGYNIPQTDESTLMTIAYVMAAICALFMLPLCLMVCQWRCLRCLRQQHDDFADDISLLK

Turning to `CC1(c2cc(NC(=O)c3ccc(F)cn3)ccc2F)CC2(CCOCC2)OC(N)=N1` (centres unmarked) [Compound 9-120, N-(3-(2-amino-4-methyl-1,9-dioxa-3-azaspiro[5.5]undec-2-en-4-yl)-4-fluorophenyl)-5-fluoropicolinamide], the pIC50 in assay [1] (setting [4]) was 7.89; on BACE1 [2], 7.72; against BACE1 [3], 6.55; at Cathepsin D it was less than 4.52.

For `CC1(c2cc(NC(=O)c3ccc(C#N)cn3)ccc2F)N=C(N)OC2(CCC2)C1(F)F` (centres unmarked) [Compound 9-161, N-(3-(6-amino-9,9-difluoro-8-methyl-5-oxa-7-azaspiro[3.5]non-6-en-8-yl)-4-fluorophenyl)-5-cyanopicolinamide], the pIC50 in assay [1] (setting [4]) is 7.42; at BACE1 [2] it was 7.87; on BACE1 [3] it was 7.18; at Cathepsin D it was less than 4.52.

As to `CC#Cc1cncc(-c2ccc(F)c([C@]3(C)CC4(CCC4)OC(N)=N3)c2)c1` [Compound 8-111, (S)-8-(2-fluoro-5-(5-(prop-1-ynyl)pyridin-3-yl)phenyl)-8-methyl-5-oxa-7-azaspiro[3.5]non-6-en-6-amine], the pIC50 is 6.41 in assay [1] (setting [4]), 7.06 on BACE1 [2], 5.45 against BACE1 [3] and 5.29 on Cathepsin D.

As to `C[C@@]1(c2cc(NC(=O)c3ccc(F)cn3)ccc2F)CC2(CCC2)SC(N)=N1` [Compound 9-144, (S)—N-(3-(6-amino-8-methyl-5-thia-7-azaspiro[3.5]non-6-en-8-yl)-4-fluorophenyl)-5-fluoropicolinamide], the pIC50 in assay [1] (setting [4]) was 8.05; at BACE1 [2], 8.10; against BACE1 [3], 7.57; on Cathepsin D it was less than 4.52.

Consider `CC#Cc1cncc(-c2csc([C@]3(C)CC4(CCOCC4)OC(N)=N3)c2)c1` [Compound 8-104, (S)-4-methyl-4-(4-(5-(prop-1-ynyl)pyridin-3-yl)thiophen-2-yl)-1,9-dioxa-3-azaspiro[5.5]undec-2-en-2-amine], for which the pIC50 in assay [1] was 6.80; on BACE1 [2] it was 7.80; against BACE1 [3] it was 6.39; on Cathepsin D, 4.83.

As to `CC1(c2cc(-c3cncnc3)ccc2F)CC2(CCOCC2)OC(N)=N1` (centres unmarked) [Compound 8-106, 4-(2-fluoro-5-(pyrimidin-5-yl)phenyl)-4-methyl-1,9-dioxa-3-azaspiro[5.5]undec-2-en-2-amine], the pIC50 is 6.17 in assay [1] (setting [4]), 6.24 on BACE1 [2], 4.90 against BACE1 [3] and less than 4.52 on Cathepsin D.

In the case of `C[C@]1(c2cc(NC(=O)c3ccc(F)cn3)ccc2F)N=C(N)OC2(CCOCC2)C1(F)F` [Compound 9-157, (R)—N-(3-(2-amino-5,5-difluoro-4-methyl-1,9-dioxa-3-azaspiro[5.5]undec-2-en-4-yl)-4-fluorophenyl)-5-fluoropicolinamide], the pIC50 in assay [1] (setting [4]) was 6.78; at BACE1 [2] it was 7.35; at BACE1 [3] it was 6.52; at Cathepsin D, less than 4.52.

As to `CC1(c2cc(NC(=O)c3ccc(Cl)cn3)ccc2F)N=C(N)OC2(CCC2)C1(F)F` (centres unmarked) [Compound 9-160, N-(3-(6-amino-9,9-difluoro-8-methyl-5-oxa-7-azaspiro[3.5]non-6-en-8-yl)-4-fluorophenyl)-5-chloropicolinamide], the pIC50 in assay [1] (setting [4]) was 6.57; on BACE1 [2] it was 7.71; against BACE1 [3], 7.18; on Cathepsin D, less than 4.52.

As for `C[C@@]1(c2cc(NC(=O)c3ccc(Cl)cc3)ccc2F)CC2(CCC2)OC(N)=N1` [Compound 9-141, (S)—N-(3-(6-amino-8-methyl-5-oxa-7-azaspiro[3.5]non-6-en-8-yl)-4-fluorophenyl)-4-chlorobenzamide], the pIC50 in assay [1] was 6.96; on BACE1 [2] it was 7.76; against BACE1 [3], 6.08; on Cathepsin D it was less than 4.52.

Consider `C[C@@]1(c2cc(NC(=O)c3ccc(F)cn3)ccc2F)CC2(CCOCC2)SC(N)=N1` [Compound 9-148, (S)—N-(3-(2-amino-4-methyl-9-oxa-1-thia-3-azaspiro[5.5]undec-2-en-4-yl)-4-fluorophenyl)-5-fluoropicolinamide], for which the pIC50 was 8.85 in assay [1] (setting [4]), 8.17 on BACE1 [2], 7.54 against BACE1 [3] and less than 4.52 on Cathepsin D.

For `C[C@]1(c2cc(NC(=O)c3ccc(F)cn3)ccc2F)CC2(CCC2)SC(N)=N1` [Compound 9-143, (R)—N-(3-(6-amino-8-methyl-5-thia-7-azaspiro[3.5]non-6-en-8-yl)-4-fluorophenyl)-5-fluoropicolinamide], the pIC50 in assay [1] (setting [4]) is 5.21; on BACE1 [2] it was less than 5.12; against BACE1 [3], 4.29; at Cathepsin D it was less than 4.52.

For the molecule `CC1(c2cc(NC(=O)c3ccc(Cl)cn3)ccc2F)CC2(CCOCC2)SC(N)=N1` (centres unmarked) [Compound 9-150, N-(3-(2-amino-4-methyl-9-oxa-1-thia-3-azaspiro[5.5]undec-2-en-4-yl)-4-fluorophenyl)-5-chloropicolinamide], the pIC50 in assay [1] (setting [4]) was more than 8.40; on BACE1 [2], 8.05; on BACE1 [3] it was 8.40; at Cathepsin D, 4.97.

`COc1cnc(C(=O)Nc2ccc(F)c([C@]3(C)CC4(CCC4)OC(N)=N3)c2)cn1` [Compound 9-135, (S)—N-(3-(6-amino-8-methyl-5-oxa-7-azaspiro[3.5]non-6-en-8-yl)-4-fluorophenyl)-5-methoxypyrazine-2-carboxamide]: the pIC50 in assay [1] (setting [4]) is 7.57; at BACE1 [2], 7.98; at BACE1 [3], 6.55; on Cathepsin D, less than 4.52.

On to `CC#Cc1cncc(-c2cc([C@]3(C)CC4(CCOCC4)OC(N)=N3)sc2C)c1` [Compound 8-108, (S)-4-methyl-4-(5-methyl-4-(5-(prop-1-ynyl)pyridin-3-yl)thiophen-2-yl)-1,9-dioxa-3-azaspiro[5.5]undec-2-en-2-amine], for which the pIC50 was 6.31 in assay [1] (setting [4]), 7.76 on BACE1 [2], 5.95 against BACE1 [3] and 5.03 on Cathepsin D.

As to `Cc1nc(C(=O)Nc2ccc(F)c([C@]3(C)CC4(CCC4)OC(N)=N3)c2)co1` [Compound 9-138, (S)—N-(3-(6-amino-8-methyl-5-oxa-7-azaspiro[3.5]non-6-en-8-yl)-4-fluorophenyl)-2-methyloxazole-4-carboxamide], the pIC50 in assay [1] (setting [4]) is 7.64; at BACE1 [2] it was 7.96; against BACE1 [3], 6.52; on Cathepsin D it was less than 4.52.

Take `CC1(c2cc(NC(=O)c3ccc(F)cn3)ccc2F)CC2(CCOCC2)SC(N)=N1` (centres unmarked) [Compound 9-147, N-(3-(2-amino-4-methyl-9-oxa-1-thia-3-azaspiro[5.5]undec-2-en-4-yl)-4-fluorophenyl)-5-fluoropicolinamide]: the pIC50 in assay [1] (setting [4]) is more than 8.40; at BACE1 [2], 8.10; on BACE1 [3] it was 7.54; on Cathepsin D, 4.81.

For the molecule `C[C@@]1(c2cc(NC(=O)c3ccc(F)cn3)ccc2F)CC2(COC2)SC(N)=N1` [Compound 9-146, (S)—N-(3-(6-amino-8-methyl-2-oxa-5-thia-7-azaspiro[3.5]non-6-en-8-yl)-4-fluorophenyl)-5-fluoropicolinamide], the pIC50 in assay [1] (setting [4]) was 7.66; on BACE1 [2], 8.01; against BACE1 [3] it was 6.92; at Cathepsin D, less than 4.52.
